Values of other authors as cited in patent publication US20090209641A1, “PHARMACEUTICAL COMPOSITION FOR ADMINISTRATION BY INJECTION” (priority 2006, published 2009).

N.N.O=C([O-])C1(C(=O)[O-])CCC1.[Pt+2] [carboplatinum]
solubility in water: 17 mg/mL
